Reference: patent publication US7294687B2, “Parenteral formulations of a peptide for the treatment of systemic lupus erythematosus” (TEVA Pharmaceutical Industries, Ltd., priority 2003, dated 2007)
Read-outs that look alike come from different tables or passages of the source.

Tests used:
[1] = Solubility of Compound 1 peptide, formulation development; type: physicochemical
Description: In order to develop a formulation for sub-cutaneous injection, it is also desirable that the pH be in the range of 4 to 9 and that the solution be iso-osmotic.
The pH was adjusted if needed.

[2] = system: IL-2 secretion from Compound 1 reference standard (RS) specific T-cells; test: Inhibition of IL-2 secretion from Compound 1 RS specific T-cells following s.c. treatment, ELISA; type: in vivo, mice; conditions: at the range of 5-100 μg/ml activator
Description: The biological activity was monitored by inhibition of IL-2 secretion from Compound 1 reference standard (RS) specific T-cells following subcutaneous (s.c.) treatment with the lyophilized compound solution, i.e. the drug product (DP), at two concentrations. The results of the treatment are compared to those of treating mice with Compound 1 (RS) in phosphate buffered saline (PBS).

[3] = system: SLE-prone (NZBxNZW)F1 female mouse; test: Intensity of immune complex deposits (ICD) in kidneys; type: in vivo, (NZBxNZW)F1 mice
Method: (§1) The same batch of drug substance was used in this study and in the first Phase I clinical trial with Compound 1. The mice were followed for anti-dsDNA antibodies and for proteinuria. When the mice were sacrificed, the intensity of ICD was determined in kidneys.

[4] = system: SLE-prone (NZBxNZW)F1 female mouse; test: Anti-dsDNA antibodies in SLE-prone mice; type: in vivo, (NZBxNZW)F1 mice; conditions: 25 or 50 μg/mouse in Captisol®; after 10 treatment injections; vs Captisol® alone
Method: as §1

SLE subjects [5] = test: Phase Ia single dose clinical study, tolerability and safety; type: in vivo, human
Method: The following safety parameters were assessed at Screening, during the hospitalization and at follow-up visits including Termination visit: vital signs (systolic blood pressure, diastolic blood pressure, pulse, oxygen saturation, temperature and weight), 12-lead ECG, change in physical examination and clinical routine laboratory safety tests. Adverse events were recorded at the Dosing Day and at each visit thereafter.

SLE subjects [6] = test: Phase Ib multiple dose clinical study, tolerability and safety; type: in vivo, human; conditions: multiple subcutaneous doses of 0.5, 1 or 2.5 mg in 120 mg Captisol®; 12 sc injections
Method: This study is being performed in order to evaluate the safety and tolerability of repeated Compound 1 sc administration to SLE subjects. […] The investigational product is administered every other day (excluding weekends) for a total of 12 sc injections, i.e. 3 doses a week for 4 weeks. Subjects are monitored on planned visits scheduled at 2, 4, 8 and 12 weeks after start of dosing. Safety and tolerability are evaluated using tests similar to those described in the Phase Ia Clinical Study above.

[7] = Stability of Compound 1 versus pH, initial tests; type: physicochemical; conditions: basic pH range
Method: Thus, several buffers and pH adjustment agents were tested, including acetate buffer, citrate buffer and sodium carbonate. None of the initially tested buffers achieved the desired peptide solubility level. […] Nevertheless, at the initial stage, formulations with acetate buffer and citrate buffer (with Mannitol as a tonicity agent) were selected for initial toxicology studies. These formulations were tested for biological activity and proven active.

[8] = system: peripheral blood lymphocytes (PBL) of SLE subjects; conditions: Compound 1 in captisol®, throughout the study period
[9] = system: Balb/c mice and SLE-prone (NZBxNZW)F1 mice; conditions: cited from earlier work
[10] = system: peripheral blood lymphocytes (PBL) of SLE patients; conditions: cited from earlier work
[11] = single s.c. dose 0.5, 1 or 2.5 mg in Captisol®
[12] = single s.c. dose 0.5, 1 or 2.5 mg in Captisol®, vs placebo

Substance: H-GYYWSWIRQPPGKGEEWIG-OH [Compound 1]
- solubility ([1]; only above pH 9.2 and below pH 3.0, buffers and pH adjustment agents, read-out: solubility levels): ≥ 2000 µg/mL
- solubility ([1]; water (aqueous solution), acetate salt, read-out: aqueous solubility of the peptide): < 500 µg/mL
- Average inhibition (%) of IL-2 secretion ([2]; treatment 50 μg/mouse s.c.): 45.6%
- Average inhibition (%) of IL-2 secretion ([2]; treatment 200 μg/mouse s.c.): 60.4%
- ICD (Mean ± SEM) ([3]; 50 μg/mouse in Captisol ®, intensity scale 0 = none to 3 = severe/extremely intense): 1.90 ± 0.23
- intensity of immune complex deposits in kidney sections ([3]; 25 or 50 μg/mouse dissolved in Captisol®, FIG. 6): much lower than that observed in the control group
- levels of dsDNA-specific antibodies [4]: no significant differences between groups
- QTc change from baseline (SLE subjects [5]; [11]): ≤ 60 ms
- serious adverse event (SAE) or AE classified as severe (SLE subjects [5]; [11]): No serious adverse event (SAE) or AE classified as severe occurred
- vital signs parameters (systolic and diastolic blood pressure, pulse, oxygen saturation) (SLE subjects [5]; [11]): No clinically significant effect
- categorical ECG measurements and digitized ECG parameters (SLE subjects [5]; [12]): No differences of clinical significance
- incidence of AEs (SLE subjects [5]; [12]): no prominent difference
- safety and tolerability, Phase Ia (SLE subjects [5]; single subcutaneous dose of 0.5, 1 or 2.5 mg in 120 mg Captisol®): safe and well tolerated
- safety and tolerability, Phase Ib (SLE subjects [6]): safe and well tolerated
- stability versus pH [7]: less stable
- immunological response to TTX recall antigen [8]: did not change the immunological response to TTX recall antigen
- SLE related findings: immune complex deposits (ICD) in the kidney, proteinuria and leukopenia ([9]; Balb/c and (NZBxNZW)F1 mice): significantly reduced
- disease manifestations of mice afflicted with spontaneous or experimental SLE ([9]; mouse, in vivo): ameliorate disease manifestations
- proliferative response of PBL of SLE patients to the human anti-DNA 16/6Id mAB [10]: inhibit the proliferative response
